Assay: Affinity capillary electrophoresis (ACE), pH 7.4
Conditions: 30 mM phosphate buffer pH 7.4, 25 °C, 15 kV
Description: To assess the CD complex formation capability of the five cathinone derivatives, we devised a screening ACE method tailored to closely mimic physiological conditions. In a preliminary study, the ACE conditions were optimized regarding the type, pH, and concentration of the background electrolyte, the applied voltage, and the injection parameters. […] In order to avoid high Joule heat generation, sufficiently low voltage should be used; thus, after registering the Ohm plot (I-U plot), it was set to 15 kV. Throughout our ACE measurements, corrections for viscosity and ionic strength were systematically implemented to ensure precise determination of complex stability constants.
The CE experiments were performed on a HP ^3DCE and on an Agilent 7100 instrument (Agilent Technologies, Waldbronn, Germany) equipped with a photodiode array detector and the Chemstation software for data handling. Untreated fused silica capillaries (50 µm id, 48.5 cm total, 40 cm effective length) were purchased from Agilent. Conditioning of new capillary was conducted by flushing with 1 M NaOH followed by 0.1 M NaOH and water for 30 min each. Prior to all runs, the capillary was preconditioned by rinsing with BGE (2 min). The temperature of the capillary was set to 25 °C. UV detection was performed at 215 nm, and 15–25 kV voltage was applied. Samples were injected hydrodynamically (150 mbar·sec, optimized in the 50–500 mbar·sec range). The CE-pH measurements were carried out applying 25 kV voltage and 200 mbar·sec injection.
The background electrolyte of the CE-pH measurements contained 25 mM Na2HPO4 and 25 mM Na2B4O7, and the appropriate pH was adjusted with hydrochloric acid. During the ACE measurements, 30 mM phosphate buffer pH 7.4 (30 mM Na2HPO4—NaOH) was used. The running buffer was 20 mM acetic acid adjusting with 1 M Tris the pH to 4.5 during the chiral screening experiments. The BGEs contained CDs at various concentrations (0.25–20 mM) in the ACE experiments and 1-5-10 mM in the chiral method optimization experiments.
Stock solutions of each cathinone analog (mephedrone, flephedrone, 4-MEC, butylone, and MDPV) were prepared separately in methanol (1 mg/ml), and appropriate dilutions with water were used to prepare sample solutions for the CE-pH titration and for the ACE studies applying DMSO as EOF marker, while their mixture was used during the chiral separation studies.
The simplest way to determine the mobility is from the migration times (tmax) read from the electropherograms from which the apparent mobility could be calculated, but more accurate mobility values could be obtained by the determination with the Haarhoff–van der Linde (HVL) function based on Equation (2). (2) HVLδ(t;a0,a1,a2,a3δ)=a0/a2a3δ2πexp[−1/2(t−a1/a2)^2]/1/exp(a3δ)−1+1/2[1+erf(t−a1/2a2)] where a0 is the area of the HVL function, a1 is the position of the Gaussian component, a2 is the standard deviation of the Gaussian component, and a3δ is the peak shape distortion. The application of the HVL function is necessary in the case of accurate ACE measurements because, in several cases, the peaks are distorted due to the complex formation, which makes reading the migration times and calculating the mobility more difficult and imprecise.
The most popular technique for quantifying the analyte–ligand interaction with CE is mobility shift ACE.

Compound	4-MEC–CD complex stability constant, Kstab/Kstab1 (unresolved or first migrating enantiomer) [M⁻¹]	Butylone–CD complex stability constant, Kstab/Kstab1 (unresolved or first migrating enantiomer) [M⁻¹]	Flephedrone–CD complex stability constant, Kstab/Kstab1 (unresolved or first migrating enantiomer) [M⁻¹]	MDPV–CD complex stability constant, Kstab/Kstab1 (unresolved or first migrating enantiomer) [M⁻¹]	Mephedrone–CD complex stability constant, Kstab/Kstab1 (unresolved or first migrating enantiomer) [M⁻¹]	MDPV–CD complex stability constant, Kstab2 (second migrating enantiomer) [M⁻¹]	Mephedrone–CD complex stability constant, Kstab2 (second migrating enantiomer) [M⁻¹]	4-MEC–CD complex stability constant, Kstab2 (second migrating enantiomer) [M⁻¹]	Butylone–CD complex stability constant, Kstab2 (second migrating enantiomer) [M⁻¹]	Flephedrone–CD complex stability constant, Kstab2 (second migrating enantiomer) [M⁻¹]
OC[C@H]1O[C@@H]2O[C@H]3[C@H](O)[C@@H](O)[C@@H](O[C@H]4[C@H](O)[C@@H](O)[C@@H](O[C@H]5[C@H](O)[C@@H](O)[C@@H](O[C@H]6[C@H](O)[C@@H](O)[C@@H](O[C@H]7[C@H](O)[C@@H](O)[C@@H](O[C@H]8[C@H](O)[C@@H](O)[C@@H](O[C@H]9[C@H](O)[C@@H](O)[C@@H](O[C@H]1[C@H](O)[C@H]2O)O[C@@H]9CO)O[C@@H]8CO)O[C@@H]7CO)O[C@@H]6CO)O[C@@H]5CO)O[C@@H]4CO)O[C@@H]3CO [γ-CD]	90 ± 15	30 ± 3	125 ± 10	100 ± 10	60 ± 10	–	–	–	–	–
hydroxypropylated-γ-CD [HP-γ-CD]	40 ± 4	40 ± 5	220 ± 35	50 ± 10	25 ± 3	–	–	–	–	–
sulfopropylated-β-CD [SP-β-CD (DS~2)]	440 ± 25	710 ± 45	140 ± 12	–	390 ± 20	–	–	–	–	–
OC[C@H]1O[C@@H]2O[C@H]3[C@H](O)[C@@H](O)[C@@H](O[C@H]4[C@H](O)[C@@H](O)[C@@H](O[C@H]5[C@H](O)[C@@H](O)[C@@H](O[C@H]6[C@H](O)[C@@H](O)[C@@H](O[C@H]7[C@H](O)[C@@H](O)[C@@H](O[C@H]1[C@H](O)[C@H]2O)O[C@@H]7CO)O[C@@H]6CO)O[C@@H]5CO)O[C@@H]4CO)O[C@@H]3CO [α-CD]	30 ± 5	40 ± 5	40 ± 4	40 ± 6	30 ± 4	50 ± 5	–	–	–	–
sulfopropylated-β-CD [SP-β-CD (DS~4)]	620 ± 65	–	120 ± 12	–	500 ± 65	–	450 ± 65	–	–	–
carboxymethylated-γ-CD [CM-γ-CD]	65 ± 8	140 ± 10	50 ± 9	160 ± 15	50 ± 8	170 ± 17	60 ± 10	70 ± 10	170 ± 10	30 ± 5
CO[C@@H]1[C@@H](OC)[C@H]2O[C@H]3[C@H](OC)[C@@H](OC)[C@@H](O[C@H]4[C@H](OC)[C@@H](OC)[C@@H](O[C@H]5[C@H](OC)[C@@H](OC)[C@@H](O[C@H]6[C@H](OC)[C@@H](OC)[C@@H](O[C@H]7[C@H](OC)[C@@H](OC)[C@@H](O[C@H]8[C@H](OC)[C@@H](OC)[C@@H](O[C@H]9[C@H](OC)[C@@H](OC)[C@@H](O[C@@H]1[C@@H](COS(=O)(=O)O)O2)O[C@@H]9COS(=O)(=O)O)O[C@@H]8COS(=O)(=O)O)O[C@@H]7COS(=O)(=O)O)O[C@@H]6COS(=O)(=O)O)O[C@@H]5COS(=O)(=O)O)O[C@@H]4COS(=O)(=O)O)O[C@@H]3COS(=O)(=O)O [ODMS-γ-CD, octakis-(2,3-O-dimethyl, 6-O-sulfo)-γ-CD]	110 ± 15	145 ± 15	90 ± 20	105 ± 7	200 ± 35	110 ± 45	140 ± 20	125 ± 20	165 ± 25	70 ± 10
sulfo(2-hydroxy)propylated-β-CD [SHP-β-CD]	250 ± 20	620 ± 35	60 ± 10	800 ± 65	230 ± 20	910 ± 55	300 ± 20	300 ± 25	–	–
O=C(O)CCSC[C@H]1O[C@@H]2O[C@H]3[C@H](O)[C@@H](O)[C@@H](O[C@H]4[C@H](O)[C@@H](O)[C@@H](O[C@H]5[C@H](O)[C@@H](O)[C@@H](O[C@H]6[C@H](O)[C@@H](O)[C@@H](O[C@H]7[C@H](O)[C@@H](O)[C@@H](O[C@H]8[C@H](O)[C@@H](O)[C@@H](O[C@H]9[C@H](O)C(O)[C@@H](O[C@H]1[C@H](O)[C@H]2O)O[C@@H]9CSCCC(=O)O)O[C@@H]8CSCCC(=O)O)O[C@@H]7CSCCC(=O)O)O[C@@H]6CSCCC(=O)O)O[C@@H]5CSCCC(=O)O)O[C@@H]4CSCCC(=O)O)O[C@@H]3CSCCC(=O)O (some centres unmarked) [SGX, octakis(6-deoxy-6-(2-carboxyethyl)thio)-γ-CD]	975 ± 90	–	315 ± 20	–	825 ± 65	–	–	960 ± 95	–	–
acetylated-β-CD [Ac-β-CD]	150 ± 15	290 ± 30	100 ± 14	310 ± 30	220 ± 20	240 ± 20	–	–	380 ± 30	–
carboxymethylated-β-CD [CM-β-CD]	620 ± 40	–	190 ± 10	–	610 ± 30	–	615 ± 25	725 ± 45	–	225 ± 10
phosphated-β-CD [Phos-β-CD]	–	–	330 ± 20	870 ± 60	–	–	–	–	–	440 ± 35
hydroxypropylated-β-CD [HP-β-CD]	80 ± 5	170 ± 10	15 ± 3	255 ± 10	60 ± 4	–	–	–	–	–

— article PMC10893103, “Cyclodextrin-Enabled Enantioselective Complexation Study of Cathinone Analogs” (Molecules, 2024)
